In patent publication US20230017045A1, “PYRIDINE AND PYRIMIDINE CARBOXYLATE HERBICIDES AND METHODS OF USE THEREOF” (Dow AgroSciences LLC, priority 2017, published 2023):

These compounds were tested on test plant species (assay: Post-emergent herbicidal activity test (greenhouse, foliar spray, visual growth reduction)). Conditions: post-emergence, 336 h, ECHCG: barnyardgrass (Echinochloa crus-galli), 140 g ai/ha, 14 days after application, read-out: Visual Growth Reduction (%) 14 Days After Application, ECHCG.
Type: in vivo
Procedure: Post-emergent Test: Seeds or nutlets of the desired test plant species were planted in Sun Gro Metro-Mix® 360 planting mixture, which typically has a pH of 6.0 to 6.8 and an organic matter content of about 30 percent, in plastic pots with a surface area of 64 square centimeters. In some aspects, to ensure good germination and healthy plants, a fungicide treatment and/or other chemical or physical treatment was applied. The plants were grown for 7-21 d in a greenhouse with an approximate 15 h photoperiod which was maintained at 23-29° C. during the day and 22-28° C. during the night. Nutrients and water were added on a regular basis and supplemental lighting was provided with overhead metal halide 1000-Watt lamps as necessary. Plants were used for testing when they reached the first or second true leaf stage. A weighed amount, determined by the highest rate to be tested, of each test compound was placed in a 25 mL glass vial and was dissolved in 4 mL of a 97:3 v/v mixture of acetone and DMSO to obtain concentrated stock solutions. […] The concentrated stock solutions obtained were diluted with 20 mL of an aqueous mixture containing acetone, water, isopropyl alcohol, DMSO, […] crop oil concentrate, and X-77 surfactant in a 48.5:39:10:1.5:1.0:0.02 v/v ratio to obtain spray solutions containing the application rate. Compound requirements are based upon a 12 mL application volume at a rate of 187 liters per hectare (L/ha). Formulated compounds were applied to the plant material with an overhead Mandel track sprayer equipped with […] nozzles calibrated to deliver 187 L/ha over an application area of 0.64 square meters at a spray height of 18 inches (43 cm) above the average plant canopy height. Control plants were sprayed in the same manner with the solvent blank. The treated plants and control plants were placed in a greenhouse as described above and watered by subirrigation to prevent wash-off of the test compounds. After 14 d, the condition of the test plants as compared with that of the nontreated and control plants was determined visually and scored on a scale of 0 to 100 percent where 0 corresponds to no injury and 100 corresponds to complete control. In the reporting of the results, Table A: Percent Growth Reduction Conversion Table was used.

Row | SMILES | pest or weed control at 140 g/ha [%]
1 | C=C(C)COC(=O)c1nc(-c2ccc(C(F)(F)F)cc2Cl)ccc1Cl [F381, 2-Methylallyl 3-chloro-6-(2-chloro-4-(trifluoromethyl)phenyl)picolinate] | 85 to 94
2 | COc1cc(-c2ccc(Cl)c(C(=O)O)n2)ccc1C(F)(F)F [F317, 3-Chloro-6-(3-methoxy-4-(trifluoromethyl)phenyl)picolinic acid] | 0 to 29

Same assay, conditions: post-emergence, 336 h, IPOHE: ivy-leaf morning glory (Ipomoea hederacea), 140 g ai/ha, 14 days after application, read-out: Visual Growth Reduction (%) 14 Days After Application, IPOHE

Row | SMILES | pest or weed control at 140 g/ha [%]
3 | C=C(C)COC(=O)c1nc(-c2ccc(C(F)(F)F)cc2Cl)ccc1Cl [F381, 2-Methylallyl 3-chloro-6-(2-chloro-4-(trifluoromethyl)phenyl)picolinate] | 95 to 100
4 | COc1cc(-c2ccc(Cl)c(C(=O)O)n2)ccc1C(F)(F)F [F317, 3-Chloro-6-(3-methoxy-4-(trifluoromethyl)phenyl)picolinic acid] | 60 to 74

Same assay, conditions: post-emergence, 336 h, KCHSC: kochia (Bassia scoparia), 140 g ai/ha, 14 days after application, read-out: Visual Growth Reduction (%) 14 Days After Application, KCHSC

Row | SMILES | pest or weed control at 140 g/ha [%]
5 | C=C(C)COC(=O)c1nc(-c2ccc(C(F)(F)F)cc2Cl)ccc1Cl [F381, 2-Methylallyl 3-chloro-6-(2-chloro-4-(trifluoromethyl)phenyl)picolinate] | 95 to 100
6 | COc1cc(-c2ccc(Cl)c(C(=O)O)n2)ccc1C(F)(F)F [F317, 3-Chloro-6-(3-methoxy-4-(trifluoromethyl)phenyl)picolinic acid] | 0 to 29

Same assay, conditions: post-emergence, 336 h, ORYSA: rice (Oryza sativa), 140 g ai/ha, 14 days after application, read-out: Visual Growth Reduction (%) 14 Days After Application, ORYSA

Row | SMILES | pest or weed control at 140 g/ha [%]
7 | C=C(C)COC(=O)c1nc(-c2ccc(C(F)(F)F)cc2Cl)ccc1Cl [F381, 2-Methylallyl 3-chloro-6-(2-chloro-4-(trifluoromethyl)phenyl)picolinate] | 0 to 29
8 | COc1cc(-c2ccc(Cl)c(C(=O)O)n2)ccc1C(F)(F)F [F317, 3-Chloro-6-(3-methoxy-4-(trifluoromethyl)phenyl)picolinic acid] | 0 to 29

Same assay, conditions: post-emergence, 336 h, SETFA: giant foxtail (Setaria faberi), 140 g ai/ha, 14 days after application, read-out: Visual Growth Reduction (%) 14 Days After Application, SETFA

Row | SMILES | pest or weed control at 140 g/ha [%]
9 | C=C(C)COC(=O)c1nc(-c2ccc(C(F)(F)F)cc2Cl)ccc1Cl [F381, 2-Methylallyl 3-chloro-6-(2-chloro-4-(trifluoromethyl)phenyl)picolinate] | 85 to 94
10 | COc1cc(-c2ccc(Cl)c(C(=O)O)n2)ccc1C(F)(F)F [F317, 3-Chloro-6-(3-methoxy-4-(trifluoromethyl)phenyl)picolinic acid] | 0 to 29

Same assay, conditions: post-emergence, 336 h, SORVU: grain sorghum (Sorghum vulgare), 140 g ai/ha, 14 days after application, read-out: Visual Growth Reduction (%) 14 Days After Application, SORVU

Row | SMILES | pest or weed control at 140 g/ha [%]
11 | C=C(C)COC(=O)c1nc(-c2ccc(C(F)(F)F)cc2Cl)ccc1Cl [F381, 2-Methylallyl 3-chloro-6-(2-chloro-4-(trifluoromethyl)phenyl)picolinate] | 85 to 94
12 | COc1cc(-c2ccc(Cl)c(C(=O)O)n2)ccc1C(F)(F)F [F317, 3-Chloro-6-(3-methoxy-4-(trifluoromethyl)phenyl)picolinic acid] | 0 to 29

Same assay, conditions: post-emergence, 336 h, STEME: common chickweed (Stellaria media), 140 g ai/ha, 14 days after application, read-out: Visual Growth Reduction (%) 14 Days After Application, STEME

Row | SMILES | pest or weed control at 140 g/ha [%]
13 | C=C(C)COC(=O)c1nc(-c2ccc(C(F)(F)F)cc2Cl)ccc1Cl [F381, 2-Methylallyl 3-chloro-6-(2-chloro-4-(trifluoromethyl)phenyl)picolinate] | 0 to 29
14 | COc1cc(-c2ccc(Cl)c(C(=O)O)n2)ccc1C(F)(F)F [F317, 3-Chloro-6-(3-methoxy-4-(trifluoromethyl)phenyl)picolinic acid] | 0 to 29

Same assay, conditions: post-emergence, 336 h, TRZAS: wheat, spring (Triticum aestivum), 140 g ai/ha, 14 days after application, read-out: Visual Growth Reduction (%) 14 Days After Application, TRZAS

Row | SMILES | pest or weed control at 140 g/ha [%]
15 | C=C(C)COC(=O)c1nc(-c2ccc(C(F)(F)F)cc2Cl)ccc1Cl [F381, 2-Methylallyl 3-chloro-6-(2-chloro-4-(trifluoromethyl)phenyl)picolinate] | 60 to 74
16 | COc1cc(-c2ccc(Cl)c(C(=O)O)n2)ccc1C(F)(F)F [F317, 3-Chloro-6-(3-methoxy-4-(trifluoromethyl)phenyl)picolinic acid] | 0 to 29

Same assay, conditions: post-emergence, 336 h, blackgrass (Alopecurus myosuroides), 14 Days After Application, 140 g ai/ha, read-out: Visual Growth Reduction (%) ALOMY

Row | SMILES | pest or weed control at 140 g/ha [%]
17 | C=C(C)COC(=O)c1nc(-c2ccc(C(F)(F)F)cc2Cl)ccc1Cl [F381, 2-Methylallyl 3-chloro-6-(2-chloro-4-(trifluoromethyl)phenyl)picolinate] | 45 to 59
18 | COc1cc(-c2ccc(Cl)c(C(=O)O)n2)ccc1C(F)(F)F [F317, 3-Chloro-6-(3-methoxy-4-(trifluoromethyl)phenyl)picolinic acid] | 0 to 29

Same assay, conditions: post-emergence, 336 h, canada thistle (Cirsium arvense), 14 Days After Application, 140 g ai/ha, read-out: Visual Growth Reduction (%) CIRAR

Row | SMILES | pest or weed control at 140 g/ha [%]
19 | C=C(C)COC(=O)c1nc(-c2ccc(C(F)(F)F)cc2Cl)ccc1Cl [F381, 2-Methylallyl 3-chloro-6-(2-chloro-4-(trifluoromethyl)phenyl)picolinate] | 85 to 94
20 | COc1cc(-c2ccc(Cl)c(C(=O)O)n2)ccc1C(F)(F)F [F317, 3-Chloro-6-(3-methoxy-4-(trifluoromethyl)phenyl)picolinic acid] | 0 to 29

Same assay, conditions: post-emergence, 336 h, crabgrass (Digitaria sanguinalis), 14 Days After Application, 140 g ai/ha, read-out: Visual Growth Reduction (%) DIGSA

Row | SMILES | pest or weed control at 140 g/ha [%]
21 | C=C(C)COC(=O)c1nc(-c2ccc(C(F)(F)F)cc2Cl)ccc1Cl [F381, 2-Methylallyl 3-chloro-6-(2-chloro-4-(trifluoromethyl)phenyl)picolinate] | 85 to 94
22 | COc1cc(-c2ccc(Cl)c(C(=O)O)n2)ccc1C(F)(F)F [F317, 3-Chloro-6-(3-methoxy-4-(trifluoromethyl)phenyl)picolinic acid] | 0 to 29

Same assay, conditions: post-emergence, 336 h, lambsquarters (Chenopodium album), 14 Days After Application, 140 g ai/ha, read-out: Visual Growth Reduction (%) CHEAL

Row | SMILES | pest or weed control at 140 g/ha [%]
23 | C=C(C)COC(=O)c1nc(-c2ccc(C(F)(F)F)cc2Cl)ccc1Cl [F381, 2-Methylallyl 3-chloro-6-(2-chloro-4-(trifluoromethyl)phenyl)picolinate] | 95 to 100
24 | COc1cc(-c2ccc(Cl)c(C(=O)O)n2)ccc1C(F)(F)F [F317, 3-Chloro-6-(3-methoxy-4-(trifluoromethyl)phenyl)picolinic acid] | 0 to 29

Same assay, conditions: post-emergence, 336 h, redroot pigweed (Amaranthus retroflexus), 14 Days After Application, 140 g ai/ha, read-out: Visual Growth Reduction (%) AMARE

Row | SMILES | pest or weed control at 140 g/ha [%]
25 | C=C(C)COC(=O)c1nc(-c2ccc(C(F)(F)F)cc2Cl)ccc1Cl [F381, 2-Methylallyl 3-chloro-6-(2-chloro-4-(trifluoromethyl)phenyl)picolinate] | 85 to 94
26 | COc1cc(-c2ccc(Cl)c(C(=O)O)n2)ccc1C(F)(F)F [F317, 3-Chloro-6-(3-methoxy-4-(trifluoromethyl)phenyl)picolinic acid] | 0 to 29

Same assay, conditions: post-emergence, 336 h, wild oat (Avena fatua), 14 Days After Application, 140 g ai/ha, read-out: Visual Growth Reduction (%) AVEFA

Row | SMILES | pest or weed control at 140 g/ha [%]
27 | C=C(C)COC(=O)c1nc(-c2ccc(C(F)(F)F)cc2Cl)ccc1Cl [F381, 2-Methylallyl 3-chloro-6-(2-chloro-4-(trifluoromethyl)phenyl)picolinate] | 45 to 59
28 | COc1cc(-c2ccc(Cl)c(C(=O)O)n2)ccc1C(F)(F)F [F317, 3-Chloro-6-(3-methoxy-4-(trifluoromethyl)phenyl)picolinic acid] | 0 to 29

Same assay, conditions: post-emergence, 336 h, yellow nutsedge (Cyperus esculentus), 14 Days After Application, 140 g ai/ha, read-out: Visual Growth Reduction (%) CYPES

Row | SMILES | pest or weed control at 140 g/ha [%]
29 | C=C(C)COC(=O)c1nc(-c2ccc(C(F)(F)F)cc2Cl)ccc1Cl [F381, 2-Methylallyl 3-chloro-6-(2-chloro-4-(trifluoromethyl)phenyl)picolinate] | 0 to 29
30 | COc1cc(-c2ccc(Cl)c(C(=O)O)n2)ccc1C(F)(F)F [F317, 3-Chloro-6-(3-methoxy-4-(trifluoromethyl)phenyl)picolinic acid] | 0 to 29
